Source: the NIST ThermoML archive (doi:10.1016/j.jct.2013.10.031)
± gives the expanded uncertainty stated by the source.

Experiment: wn = mass fraction of the nth substance listed
Details: Gas, Burnett expansion method

FCC(F)(F)F [1,1,1,2-tetrafluoroethane] + CCC
Details	mass density [kg/m3]
251.84 K, 167.7 kPa, w2 = 0.4	9.96073 ± 1.9
251.85 K, 201.9 kPa, w2 = 0.4	13.2676 ± 1.9
251.86 K, 140.8 kPa, w2 = 0.4	7.47724 ± 1.8
251.88 K, 122.9 kPa, w2 = 0.4	5.6131 ± 1.9
251.89 K, 177.7 kPa, w2 = 0.45	5.82156 ± 0.55
251.9 K, 103.2 kPa, w2 = 0.45	3.28086 ± 0.41
251.9 K, 135.5 kPa, w2 = 0.45	4.37034 ± 0.62
251.9 K, 231.8 kPa, w2 = 0.45	7.75442 ± 0.87
252.28 K, 125.8 kPa, w2 = 0.5	3.8957 ± 0.65
252.28 K, 164.9 kPa, w2 = 0.5	5.1893 ± 0.67
252.29 K, 95.7 kPa, w2 = 0.5	2.9246 ± 0.65
252.29 K, 215.3 kPa, w2 = 0.5	6.9121 ± 0.71
252.3 K, 277.7 kPa, w2 = 0.5	9.2069 ± 0.75
254.94 K, 147.3 kPa, w2 = 0.65	4.0008 ± 0.57
254.94 K, 193.1 kPa, w2 = 0.65	5.32 ± 0.59
254.94 K, 251.7 kPa, w2 = 0.65	7.0741 ± 0.6
254.95 K, 111.9 kPa, w2 = 0.65	3.0009 ± 0.57
255.01 K, 161.7 kPa, w2 = 0.55	4.7449 ± 0.62
255.01 K, 211.6 kPa, w2 = 0.55	6.3095 ± 0.64
255.01 K, 275.1 kPa, w2 = 0.55	8.3897 ± 0.66
255.02 K, 122.9 kPa, w2 = 0.55	3.5683 ± 0.6
255.02 K, 242.1 kPa, w2 = 0.6	7.0088 ± 0.62
255.03 K, 107.3 kPa, w2 = 0.6	2.9809 ± 0.58
255.03 K, 141.3 kPa, w2 = 0.6	3.9638 ± 0.59
255.03 K, 185.5 kPa, w2 = 0.6	5.2708 ± 0.61
255.79 K, 278.4 kPa, w2 = 0.45	9.23624 ± 0.73
255.8 K, 213.6 kPa, w2 = 0.45	6.93377 ± 0.7
255.81 K, 124.4 kPa, w2 = 0.45	3.90764 ± 0.66
255.81 K, 163.3 kPa, w2 = 0.45	5.20515 ± 0.68
255.82 K, 214.2 kPa, w2 = 0.4	7.34761 ± 0.59
255.82 K, 276.5 kPa, w2 = 0.4	9.7875 ± 0.79
255.83 K, 125 kPa, w2 = 0.4	4.14099 ± 0.43
255.83 K, 163.9 kPa, w2 = 0.4	5.51597 ± 0.65
256.28 K, 141.3 kPa, w2 = 0.5	4.27286 ± 0.63
256.28 K, 185.6 kPa, w2 = 0.5	5.69162 ± 0.65
256.28 K, 242.9 kPa, w2 = 0.5	7.58146 ± 0.69
256.28 K, 314.6 kPa, w2 = 0.5	10.099 ± 0.71
256.29 K, 107.2 kPa, w2 = 0.5	3.20772 ± 0.62
258.98 K, 181.5 kPa, w2 = 0.65	4.8943 ± 0.57
258.99 K, 138.2 kPa, w2 = 0.65	3.6806 ± 0.56
258.99 K, 237.5 kPa, w2 = 0.65	6.508 ± 0.6
259 K, 308.1 kPa, w2 = 0.65	8.6533 ± 0.61
259.04 K, 159.4 kPa, w2 = 0.6	4.3995 ± 0.58
259.04 K, 209.2 kPa, w2 = 0.6	5.8501 ± 0.59
259.04 K, 273.1 kPa, w2 = 0.6	7.7791 ± 0.62
259.05 K, 121 kPa, w2 = 0.6	3.3086 ± 0.57
259.15 K, 246.1 kPa, w2 = 0.55	7.2337 ± 0.64
259.15 K, 319.6 kPa, w2 = 0.55	9.6189 ± 0.65
259.16 K, 143 kPa, w2 = 0.55	4.0909 ± 0.61
259.16 K, 188 kPa, w2 = 0.55	5.4398 ± 0.61
260.14 K, 233.5 kPa, w2 = 0.45	7.48249 ± 0.7
260.15 K, 178.4 kPa, w2 = 0.45	5.61717 ± 0.68
260.16 K, 136 kPa, w2 = 0.45	4.21669 ± 0.66
260.16 K, 216.7 kPa, w2 = 0.5	6.56707 ± 0.65
260.16 K, 304 kPa, w2 = 0.45	9.96648 ± 0.71
260.17 K, 104.4 kPa, w2 = 0.45	3.16556 ± 0.64
260.18 K, 117.7 kPa, w2 = 0.4	3.78056 ± 0.66
260.19 K, 155.8 kPa, w2 = 0.4	5.03578 ± 0.68
260.19 K, 265.9 kPa, w2 = 0.4	8.93493 ± 0.76
260.2 K, 125.4 kPa, w2 = 0.5	3.70054 ± 0.62
260.2 K, 165.1 kPa, w2 = 0.5	4.92963 ± 0.63
260.21 K, 95 kPa, w2 = 0.5	2.77802 ± 0.59
260.25 K, 204 kPa, w2 = 0.4	6.70606 ± 0.71
260.39 K, 282.8 kPa, w2 = 0.5	8.73987 ± 0.68
263.01 K, 137.7 kPa, w2 = 0.65	3.5955 ± 0.55
263.01 K, 237 kPa, w2 = 0.65	6.3575 ± 0.58
263.01 K, 308.7 kPa, w2 = 0.65	8.4537 ± 0.6
263.02 K, 181 kPa, w2 = 0.65	4.781 ± 0.56
263.04 K, 222.9 kPa, w2 = 0.55	6.3877 ± 0.61
263.05 K, 128.9 kPa, w2 = 0.55	3.6124 ± 0.58
263.05 K, 219.6 kPa, w2 = 0.6	6.0704 ± 0.59
263.05 K, 286.9 kPa, w2 = 0.6	8.072 ± 0.62
263.05 K, 291.1 kPa, w2 = 0.55	8.4935 ± 0.64
263.06 K, 167.2 kPa, w2 = 0.6	4.5651 ± 0.58
263.06 K, 169.8 kPa, w2 = 0.55	4.8035 ± 0.59
263.06 K, 376.6 kPa, w2 = 0.55	11.2936 ± 0.67
263.07 K, 371.3 kPa, w2 = 0.6	10.733 ± 0.64
264.02 K, 234.6 kPa, w2 = 0.45	7.35423 ± 0.68
264.02 K, 305.6 kPa, w2 = 0.45	9.80334 ± 0.72
264.03 K, 136.3 kPa, w2 = 0.45	4.14766 ± 0.64
264.03 K, 179.2 kPa, w2 = 0.45	5.52482 ± 0.66
264.03 K, 395.1 kPa, w2 = 0.45	13.0578 ± 0.73
264.05 K, 220.5 kPa, w2 = 0.4	7.15058 ± 0.7
264.05 K, 288.1 kPa, w2 = 0.4	9.52478 ± 0.73
264.06 K, 127.7 kPa, w2 = 0.4	4.02995 ± 0.66
264.06 K, 168.1 kPa, w2 = 0.4	5.36802 ± 0.67
264.06 K, 373.8 kPa, w2 = 0.4	12.6873 ± 0.75
264.29 K, 216 kPa, w2 = 0.5	6.42237 ± 0.63
264.29 K, 282.6 kPa, w2 = 0.5	8.55501 ± 0.66
264.29 K, 367.3 kPa, w2 = 0.5	11.3955 ± 0.69
264.3 K, 124.9 kPa, w2 = 0.5	3.61957 ± 0.61
264.3 K, 164.5 kPa, w2 = 0.5	4.82138 ± 0.62
266.99 K, 289.8 kPa, w2 = 0.65	7.7396 ± 0.58
267.01 K, 221.7 kPa, w2 = 0.65	5.82 ± 0.56
267.01 K, 375.8 kPa, w2 = 0.65	10.2907 ± 0.6
267.02 K, 128.5 kPa, w2 = 0.65	3.2915 ± 0.54
267.02 K, 169 kPa, w2 = 0.65	4.3767 ± 0.54
267.04 K, 261.1 kPa, w2 = 0.55	7.4247 ± 0.61
267.04 K, 340.3 kPa, w2 = 0.55	9.8728 ± 0.65
267.05 K, 199.2 kPa, w2 = 0.55	5.5837 ± 0.59
267.05 K, 438.6 kPa, w2 = 0.55	13.1279 ± 0.67
267.07 K, 138.6 kPa, w2 = 0.6	3.6841 ± 0.54
267.07 K, 151.4 kPa, w2 = 0.55	4.1987 ± 0.58
267.07 K, 182.7 kPa, w2 = 0.6	4.8989 ± 0.56
267.07 K, 239.8 kPa, w2 = 0.6	6.5142 ± 0.58
267.07 K, 313.2 kPa, w2 = 0.6	8.6621 ± 0.61
267.08 K, 405.7 kPa, w2 = 0.6	11.5178 ± 0.65
267.95 K, 114.5 kPa, w2 = 0.4	3.5398 ± 0.65
267.95 K, 150.8 kPa, w2 = 0.4	4.71519 ± 0.65
267.95 K, 198.3 kPa, w2 = 0.4	6.28082 ± 0.67
267.96 K, 259.7 kPa, w2 = 0.4	8.36602 ± 0.7
268 K, 338.5 kPa, w2 = 0.4	11.1424 ± 0.73
268.07 K, 437.9 kPa, w2 = 0.4	14.8381 ± 0.75
268.15 K, 234.6 kPa, w2 = 0.45	7.16341 ± 0.65
268.15 K, 306.8 kPa, w2 = 0.45	9.54198 ± 0.68
268.15 K, 398.6 kPa, w2 = 0.45	12.7103 ± 0.72
268.16 K, 135.7 kPa, w2 = 0.45	4.03719 ± 0.62
268.16 K, 178.7 kPa, w2 = 0.45	5.37765 ± 0.63
268.22 K, 133.2 kPa, w2 = 0.5	3.80047 ± 0.6
268.23 K, 175.4 kPa, w2 = 0.5	5.06234 ± 0.61
268.24 K, 230.4 kPa, w2 = 0.5	6.74301 ± 0.62
268.24 K, 301.4 kPa, w2 = 0.5	8.98179 ± 0.65
268.25 K, 391.6 kPa, w2 = 0.5	11.9637 ± 0.67
270.98 K, 225.5 kPa, w2 = 0.55	6.2618 ± 0.59
270.99 K, 171.5 kPa, w2 = 0.55	4.709 ± 0.57
270.99 K, 295.2 kPa, w2 = 0.55	8.3263 ± 0.61
270.99 K, 384.1 kPa, w2 = 0.55	11.0715 ± 0.65
271.01 K, 493 kPa, w2 = 0.55	14.7211 ± 0.69
271.03 K, 140.5 kPa, w2 = 0.65	3.5483 ± 0.53
271.03 K, 242.2 kPa, w2 = 0.65	6.274 ± 0.55
271.03 K, 316.1 kPa, w2 = 0.65	8.3428 ± 0.58
271.04 K, 184.7 kPa, w2 = 0.65	4.7181 ± 0.54
271.04 K, 466.5 kPa, w2 = 0.6	13.2292 ± 0.65
271.05 K, 409.9 kPa, w2 = 0.65	11.0926 ± 0.59
271.08 K, 361.5 kPa, w2 = 0.6	9.9474 ± 0.61
271.1 K, 160.8 kPa, w2 = 0.6	4.2305 ± 0.54
271.1 K, 211.6 kPa, w2 = 0.6	5.6254 ± 0.56
271.1 K, 277.5 kPa, w2 = 0.6	7.4803 ± 0.58
271.58 K, 526.1 kPa, w2 = 0.5	16.4345 ± 0.73
271.6 K, 411.1 kPa, w2 = 0.5	12.337 ± 0.69
271.62 K, 241.2 kPa, w2 = 0.5	6.95248 ± 0.61
271.62 K, 316.5 kPa, w2 = 0.5	9.26115 ± 0.64
271.64 K, 182.9 kPa, w2 = 0.5	5.21904 ± 0.59
271.65 K, 138.7 kPa, w2 = 0.5	3.918 ± 0.59
272.12 K, 507.5 kPa, w2 = 0.45	16.4006 ± 0.73
272.13 K, 175.9 kPa, w2 = 0.45	5.20923 ± 0.63
272.13 K, 231.2 kPa, w2 = 0.45	6.93891 ± 0.64
272.13 K, 289.6 kPa, w2 = 0.4	9.21252 ± 0.69
272.13 K, 302.5 kPa, w2 = 0.45	9.24297 ± 0.67
272.13 K, 393.6 kPa, w2 = 0.45	12.3121 ± 0.71
272.14 K, 127.8 kPa, w2 = 0.4	3.89783 ± 0.64
272.14 K, 168.4 kPa, w2 = 0.4	5.19207 ± 0.64
272.14 K, 221.2 kPa, w2 = 0.4	6.91602 ± 0.67
